Results taken from patent US11279744B2, “Neuropeptide Y fragment capable of releasing hematopoietic stem cells into blood and treating osteoporosis” (Kyungpook National University Industry-Academic Cooperation …, priority 2017, dated 2022).
“Also recorded” adds a separate entry of the source. Non-standard residues stand in square brackets, D forms with d. No end group written: not given here.

Key:
[1] = test system: adhesion factors of hematopoietic stem cell in bone marrow (Sdf-1a, KitI, Angpt1); experiment: expression of adhesion factors in bone marrow of osteoporosis animal models, real-time quantitative PCR; assay type: in vivo, mouse; details: OVX mice, 50 μg/kg i.p. twice a day for 4 weeks; bone marrow 1 hour after last administration
Description: To make an osteoporosis model, 10-18 12 weeks old female mice per group underwent ovarian ablation. A week later, 50 μg/kg of NPY(21-28), NPY D^25(21-28), NPY D^26(21-28), NPY D^25,26(21-28), Osteopep2, NPY and 100 μl of PBS(Gibco) were intraperitoneally administered twice a day for 4 weeks at 12 hour intervals. Alendronate (Sigma), used as a competitive drug, was intraperitoneally administered once a week for 4 weeks at a dose of 50 μg/kg. As a control group, only Sham model of osteoporosis was performed by subcutaneous dissection of female mouse. Mice were placed in experimental groups using the Block randomization method, and all mouse experiments were approved through the Kyungpook National University Institutional Animal Care and Use Committee.
Real-time quantitative PCR was used to measure expression levels of hematopoietic stem cell adhesion factors (Sdf-1a, KitI, Angpt1) present in osteoblasts. Total RNA was extracted from cell eluate and bone marrow cells using the RNeasy Plus mini kit (Qiagen, Korea, Ltd), and cDNAs were synthesized from 5 μg total RNA using a kit in Clontech (Mountain View, Calif.). In addition, using a Corbett research RG-6000 real-time PCR instrument, Real-time quantitative PCR was performed at 95° C. for 10 minutes; at 95° C., for 10 seconds; at 58° C., for 15 seconds; at 72° C. for 20 seconds as one cycle, and 40 cycles were repeated.
In order to investigate whether the NPY (21-28) of the present invention affects the blood release of myelopoiesis stem cells in the animal models of osteoporosis, the following experiments were carried out according to the methods of Examples 1-1, 1-3, 1-4, and 1-5. In order to make animal models of osteoporosis, 12 weeks old C57BL/6 female mice were subjected to ovarian ablation for 10 to 18 animals in each group. […] Weight change was measured weekly, and bone marrow and blood were collected one hour after the last dose at 4 weeks, and the release of myelopoiesis progenitor and stem cells into blood was analyzed. […]

[2] = test system: myelopoiesis progenitor cells in the blood; experiment: Colony-forming unit (CFU) assay, progenitor cells in blood of osteoporosis animal models; assay type: in vivo, mouse; details: OVX mice, 50 μg/kg i.p. twice a day for 4 weeks, blood 1 hour after last dose
Description: To make an osteoporosis model, 10-18 12 weeks old female mice per group underwent ovarian ablation. A week later, 50 μg/kg of NPY(21-28), NPY D^25(21-28), NPY D^26(21-28), NPY D^25,26(21-28), Osteopep2, NPY and 100 μl of PBS(Gibco) were intraperitoneally administered twice a day for 4 weeks at 12 hour intervals. Alendronate (Sigma), used as a competitive drug, was intraperitoneally administered once a week for 4 weeks at a dose of 50 μg/kg. As a control group, only Sham model of osteoporosis was performed by subcutaneous dissection of female mouse. Mice were placed in experimental groups using the Block randomization method, and all mouse experiments were approved through the Kyungpook National University Institutional Animal Care and Use Committee. CFU analysis was performed to determine the number of bone marrow hematopoietic progenitor cells in the blood of mice. After anesthetizing the mouse first, 500 μl to 700 μl of blood were collected in a heparin tube by cardiac drawing, and then placed in ammonium chloride solution (Stem Cell Technologies, Inc. 1:10) and placed on ice for 15 minutes to remove red blood cells. The red blood cells were well shaken at intervals of 2 to 3 minutes and centrifuged at 1000 rpm for 7 minutes. The supernatant was removed and washed with IMDM (Gibco) supplied with 2% fetal bovine serum (FBS, Gibco). The washed cells (3×10^5 per mouse) were divided into three 35 mm dishes containing methylcellulose-based media (Methocult, Stem cell), and after the cells were incubated for two weeks, the number of colonies formed in the flask was counted. In order to investigate whether the NPY (21-28) of the present invention affects the blood release of myelopoiesis stem cells in the animal models of osteoporosis, the following experiments were carried out according to the methods of Examples 1-1, 1-3, 1-4, and 1-5. In order to make animal models of osteoporosis, 12 weeks old C57BL/6 female mice were subjected to ovarian ablation for 10 to 18 animals in each group. One week later, 50 μg/kg of NPY (21-28) and 100 μl of PBS (Gibco) were intraperitoneally administered twice a day for 4 weeks at 12 hour intervals. As a control group, mice that underwent only subcutaneous incisions in normal mice were used. Weight change was measured weekly, and bone marrow and blood were collected one hour after the last dose at 4 weeks, and the release of myelopoiesis progenitor and stem cells into blood was analyzed. The positive control group, NPY (21-36), Osteopep2 and full length NPY (50 μg/kg, intraperitoneally administered twice a day for 4 weeks) were used. Alendronate used as a competitive drug for osteoporosis treatment was intraperitoneally administered at a dose of 50 μg/kg for 4 weeks once a week. […]

Substance	expression levels of major adhesion factors Sdf-1a, KitI, and Angpt1 in bone marrow [1]	releasing myelopoiesis progenitor cells into blood (CFU assay) [2]	releasing myelopoiesis progenitor cells into blood (CFU assay) ([2]; listed as NPY D^25,26 (21-28))
NPY D^25(21-28): peptide in which arginine, the fifth amino acid of the amino acid sequence of NPY (21-28), is modified to D-type (YSAL[dR]HYI)	decreased; also recorded: generally superior to those of NPY	increases	–
NPY D^25,26(21-28): peptide in which both the fifth and sixth amino acids of NPY (21-28) are modified to D-form (YSAL[dR][dH]YI)	decreased; also recorded: generally superior to those of NPY	increases	highest efficiency; also recorded: even better than that of NPY (21-28)
YSALRHYI [NPY (21-28)]	decreased	increases; also recorded: superior to Osteopep2 and NPY	–
